Data taken from patent US20090239841A1, “Diaryl Ureas as CB1 Antagonists” (priority 2004, published 2009).

Target: T1, hCB1 (Homo sapiens, UniProt P21554)
T1 construct: made in house; host or cells: Sf9 insect cells (baculovirus), P2 membranes
Experiment: Agonist-induced GTP binding (GTPγ35S) assay at CB1, Example 8
Type: biochemical
Details: IC50 at CB1, determined as described in Example 8; read-out: IC50
How it was run: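 Antagonism read as inhibition of 1 nM CP55,940-stimulated GTPγ35S ([…]) binding, compounds at 10^−10 to 10^−5 M. Baculovirus-infected Sf9 membranes bearing hCB1 plus G-protein subunits, 60 min room-temperature incubation with 5 μM GDP. Filtration and scintillation counting; data as percent over basal.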

T1 sequence (P21554 whole entry): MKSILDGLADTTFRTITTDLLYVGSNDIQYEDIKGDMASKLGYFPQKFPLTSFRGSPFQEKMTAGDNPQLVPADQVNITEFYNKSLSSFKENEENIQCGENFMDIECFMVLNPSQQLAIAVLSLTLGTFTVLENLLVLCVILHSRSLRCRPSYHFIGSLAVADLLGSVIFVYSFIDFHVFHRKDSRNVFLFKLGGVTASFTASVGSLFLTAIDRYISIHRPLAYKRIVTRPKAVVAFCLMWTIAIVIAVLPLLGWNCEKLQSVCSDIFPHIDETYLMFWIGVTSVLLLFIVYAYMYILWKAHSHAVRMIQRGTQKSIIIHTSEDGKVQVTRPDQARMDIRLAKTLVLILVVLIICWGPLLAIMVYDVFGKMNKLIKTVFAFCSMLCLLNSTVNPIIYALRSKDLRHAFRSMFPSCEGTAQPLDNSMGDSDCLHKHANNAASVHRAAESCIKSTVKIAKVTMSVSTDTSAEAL

| Structure (SMILES) | IC50 [nM] |
| --- | --- |
| CCOC(=O)c1cccc(NC(=O)Nc2ccc(F)c(C)c2)c1 [Compound 767, ethyl 3-({[(4-fluoro-3-methylphenyl)amino]carbonyl}amino)benzoate] | < 2000 |
| CCOC(=O)c1cccc(NC(=O)Nc2ccc(F)c(F)c2)c1 [Compound 768, ethyl 3-({[(3,4-difluorophenyl)amino]carbonyl}amino)benzoate] | < 2000 |
| CCOC(=O)c1cccc(NC(=O)Nc2ccc(C)c(Cl)c2)c1 [Compound 770, ethyl 3-({[(3-chloro-4-methylphenyl)amino]carbonyl}amino)benzoate] | < 2000 |
| CCOC(=O)c1cccc(NC(=O)Nc2ccc(Cl)c(C)c2)c1 [Compound 771, ethyl 3-({[(4-chloro-3-methylphenyl)amino]carbonyl}amino)benzoate] | < 2000 |
| O=C(Nc1ccc(F)c(F)c1)Nc1ccc2c(c1)CCC2 [Compound 775, 1-(3,4-difluorophenyl)-3-(2,3-dihydro-1H-inden-5-yl)urea] | < 2000 |
| CCOC(=O)c1ccc(NC(=O)Nc2ccc(F)cc2C(F)(F)F)cc1 [Compound 778, ethyl 4-[({[4-fluoro-2-(trifluoromethyl)phenyl]amino}carbonyl)amino]benzoate] | < 2000 |
| CCOC(=O)c1ccc(NC(=O)Nc2ccc(Cl)nc2)cc1 [Compound 779, ethyl 4-({[(6-chloropyridin-3-yl)amino]carbonyl}amino)benzoate] | < 2000 |
| CCOC(=O)c1cccc(NC(=O)Nc2cccc(OC(F)F)c2)c1 [Compound 782, ethyl 3-[({[3-(difluoromethoxy)phenyl]amino}carbonyl)amino] benzoate] | < 2000 |
| N#CCOc1ccc(NC(=O)Nc2cccc(OC(F)F)c2)cc1 [Compound 783, N-[4-(cyanomethoxy)phenyl]-N′-[3-(difluoromethoxy)phenyl]urea] | < 2000 |
| O=C(Nc1ccc(Cn2cncn2)cc1)Nc1cccc(OC(F)F)c1 [Compound 784, N-[3-(difluoromethoxy)phenyl]-N′-[4-(1H-1,2,4-triazol-1-ylmethyl)phenyl]urea] | < 2000 |
| CN(CCc1cccc(NC(=O)Nc2cccc(OC(F)F)c2)c1)S(C)(=O)=O [Compound 785, N-(2-{3-[({[3-(difluoromethoxy)phenyl]amino}carbonyl)amino]phenyl}ethyl)-N-methylmethane-sulfonamide] | < 2000 |
| O=C(Nc1ccc(Cn2ccnc2)cc1)Nc1ccc(OC(F)F)cc1 [Compound 786, N-[4-(difluoromethoxy)phenyl]-N′-[4-(1H-irnidazol-1-ylmethyl)phenyl]urea] | < 2000 |
| O=C(Nc1ccc(Cn2cncn2)cc1)Nc1ccc(OC(F)F)cc1 [Compound 787, N-[4-(difluoromethoxy)phenyl]-N′-[4-(1H-1,2,4-triazol-1-ylmethyl)phenyl]urea] | < 2000 |

Further lines, results first:

| IC50 [nM] | Structure (SMILES) |
| --- | --- |
| < 2000 | COC(=O)c1cccc(NC(=O)Nc2ccc(C)c(Cl)c2)c1 [Compound 769, methyl 3-({[(3-chloro-4-methylphenyl)amino]carbonyl}amino)benzoate] |
| < 2000 | Cc1ccc(NC(=O)Nc2ccc(C)c(F)c2)cc1F [Compound 772, 1,3-bis(3-fluoro-4-methylphenyl)urea] |
| < 2000 | Cc1ccc(NC(=O)Nc2ccc(F)c(F)c2)cc1F [Compound 774, 1-(3,4-difluorophenyl)-3-(3-fluoro-4-methylphenyl)urea] |
| < 2000 | Cc1ccc(NC(=O)Nc2ccc(C)c(Cl)c2)cc1F [Compound 776, 1-(3-chloro-4-methylphenyl)-3-(3-fluoro-4-methylphenyl)urea] |
| < 2000 | Cc1ccc(NC(=O)Nc2ccc(F)c(F)c2)cc1Cl [Compound 777, 1-(3-chloro-4-methylphenyl)-3-(3,4-difluorophenyl)urea] |
| < 2000 | Cc1ccc(NC(=O)Nc2ccc(Cl)nc2)cc1C [Compound 780, 1-(6-chloropyridin-3-yl)-3-(3,4-dimethylphenyl)urea] |
| < 2000 | Cc1ccc(NC(=O)Nc2ccc(Cl)nc2)cc1F [Compound 781, 1-(6-chloropyridin-3-yl)-3-(3-fluoro-4-methylphenyl)urea] |
